Results published in paper PMC5931996 (Scientific Reports, 2018).

Legend:
[1] = system: 5-HTP-induced head twitches in rats; assay: 5-HTP-induced head twitch; format: in vivo, SD rats; conditions: mean ± S.E.M.
Experimental: SD rats (200–250 g, 8 animals/ group) were housed in the test room for at least 1 h before the experiment. […] Then, all animals were intraperitoneally injected with 0.9% saline or 5-HTP (320 mg/kg) 40 min before the test. The number of head twitches was recorded during a period of 40–70 min after intraperitoneal injection.

[2] = system: MK-801-induced locomotor hyperactivity in rats; assay: Inhibition of MK-801-induced hyperactivity; format: in vivo, SD rats; conditions: mean ± S.E.M.
Experimental: […]. […] Animals were returned to the activity chambers after the intraperitoneal injection, and locomotor activity as quantitated as the distance travelled (mm) was recorded for 10 to 20 minutes using the TopScan monitoring system. At the end of each trial, the faecal boli were cleaned to avoid the potential influence of intramaze cues (odour trails, etc.) on the rats[36].

MK-801-treated rats [3] = assay: Morris water maze test, acute administration, MK-801-treated rats; format: in vivo, SD rats; conditions: mean ± S.E.M.
Experimental: SD rats (200–250 g, 8 animals/ group) were trained continuously until all rats found the platform within 30 sec, and the training time depended on the training results. […]. Then, all animals were intraperitoneal injections of 0.9% saline or MK-801 (0.2 mg/kg, i.p.) 30 minutes before the test. The test was started and the escape latency of rats was measured during the test in which platform was not withdrawn. A trial was deemed complete as soon as the rat had located platform or when 60 s had elapsed, whichever occurred first. The swimming activity of each rat was monitored by TopScan monitoring system. At the end of each trial, the maze was cleaned. The maze was rotated by clockwise after each training day to avoid potential intramaze cues (odour trails, etc.)[38].

MK-801-treated rats [4] = assay: Morris water maze test, subchronic administration, MK-801-treated rats; format: in vivo, SD rats
Experimental: The MWM test was started after the last injection. Each rat was trained in 4 trials per day for 5 consecutive days. The escape latency to find the submerged escape platform in the water maze was recorded with the TopScan monitoring system. Each training session lasted for a maximum of 60 s. If the escape latency exceeded 60 s, it was recorded as 60 s and the rat was manually guided to the platform. On day 6, the platform was removed and each rat was allowed to swim freely for 60 s.

[5] = system: MK-801-induced NOR deficit in rats; assay: Novel object recognition (NOR) test; conditions: MK-801 0.3 mg/kg i.p. day 15–28 with vehicle (model group)
Experimental: Rats were testing after the last administration. Following a 10-min habituation session on the day of testing, each rat was placed in the NOR chamber (grey PVC boxes 60*60 cm wide and 45 cm deep) and exposed to two identical objects (Left and Right) for a period of 10 min (Acquisition Trial). The objects used in this experiment were rectangular plastic cases. […] Rats were then returned to their home cage for an inter-trial interval (ITI) of 1.5 h and the entire box was cleaned. Then one was replaced with an identical familiar copy and one was replaced with a novel object. Following the ITI, rats were returned to the apparatus and allowed to explore the familiar and novel objects in the test box for a 10-min retention trial (Retention Trial). All experiments were monitored by TopScan monitoring system[39].

human α1B receptor = target: T1, human α1B receptor (Homo sapiens, UniProt P35368); assay: Radioligand binding assay, α1B receptor; conditions: radioligand displacement, transfected HEK-293 cells; read-out: Receptor binding affinity (Ki), α1B
T1 construct: expressed in transfected cells; host or cells: HEK-293
T1 sequence (P35368 1-520): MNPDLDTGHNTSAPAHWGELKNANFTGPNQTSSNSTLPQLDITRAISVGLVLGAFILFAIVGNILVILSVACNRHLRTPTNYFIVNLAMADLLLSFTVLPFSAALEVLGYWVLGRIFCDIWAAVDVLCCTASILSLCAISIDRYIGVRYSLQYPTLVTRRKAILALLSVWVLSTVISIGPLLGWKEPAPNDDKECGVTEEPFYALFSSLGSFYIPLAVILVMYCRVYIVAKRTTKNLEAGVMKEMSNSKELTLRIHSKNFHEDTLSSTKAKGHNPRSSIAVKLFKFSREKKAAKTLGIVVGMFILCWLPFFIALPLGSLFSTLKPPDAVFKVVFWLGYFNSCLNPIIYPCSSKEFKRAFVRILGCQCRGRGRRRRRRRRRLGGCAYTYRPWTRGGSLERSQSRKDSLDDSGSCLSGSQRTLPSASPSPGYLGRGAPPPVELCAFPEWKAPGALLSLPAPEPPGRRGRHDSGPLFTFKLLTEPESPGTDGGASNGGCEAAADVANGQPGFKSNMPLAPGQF
Experimental: (§1) The affinity of compounds for the human dopamine D2, D3, D4, 5-HT2A, 5-HT2B, 5-HT2C, 5-HT6, 5-HT7, H1, α1A, and α1B receptors in transfected HEK-293 cells was determined using a radioligand binding assay. Cell membrane homogenates were incubated in the absence or presence of the test compound in a buffer. Nonspecific binding was measured in the presence of the standard reference compound. Following incubation, samples were rapidly filtered under a vacuum through glass fibre filters (GF/B, Packard) presoaked with 0.3% PEI and rinsed several times with ice-cold 50 mM Tris-HCl using a 96-sample cell harvester (Unifilter, Packard). Filters were dried and then radioactivity was counted in a scintillation counter (Topcount, Packard) using a scintillation cocktail (Microscint 0, Packard). The results are expressed as percent inhibition of the specific binding of the radioligand in the control. The standard reference compound was tested in each experiment at several concentrations to obtain a competition curve from which its Ki was calculated.

human 5-HT2A receptor = human 5-HT2A receptor (Homo sapiens, UniProt P28223); assay: Radioligand binding assay, 5-HT2A receptor; conditions: radioligand displacement, transfected HEK-293 cells; read-out: Receptor binding affinity (Ki), 5-HT2A
Sequence of human 5-HT2A receptor (P28223 whole entry): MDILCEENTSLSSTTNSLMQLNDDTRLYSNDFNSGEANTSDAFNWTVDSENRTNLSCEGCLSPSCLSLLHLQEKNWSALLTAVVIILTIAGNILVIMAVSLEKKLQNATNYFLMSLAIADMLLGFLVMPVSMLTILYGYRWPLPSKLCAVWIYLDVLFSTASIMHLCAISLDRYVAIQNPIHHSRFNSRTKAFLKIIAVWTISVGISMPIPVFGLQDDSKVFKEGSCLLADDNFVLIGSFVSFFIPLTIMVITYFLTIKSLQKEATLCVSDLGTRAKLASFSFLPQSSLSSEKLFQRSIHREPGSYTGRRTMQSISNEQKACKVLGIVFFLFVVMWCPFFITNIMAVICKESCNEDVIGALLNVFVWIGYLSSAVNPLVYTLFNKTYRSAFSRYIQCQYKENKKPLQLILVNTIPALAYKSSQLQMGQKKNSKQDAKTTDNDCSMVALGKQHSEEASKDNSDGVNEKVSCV

human α1A receptor = target: T2, human α1A receptor (Homo sapiens, UniProt P35348); assay: Radioligand binding assay, α1A receptor; conditions: radioligand displacement, transfected HEK-293 cells; read-out: Receptor binding affinity (Ki), α1A
T2 construct: expressed in transfected cells; host or cells: HEK-293
T2 sequence (P35348 1-466): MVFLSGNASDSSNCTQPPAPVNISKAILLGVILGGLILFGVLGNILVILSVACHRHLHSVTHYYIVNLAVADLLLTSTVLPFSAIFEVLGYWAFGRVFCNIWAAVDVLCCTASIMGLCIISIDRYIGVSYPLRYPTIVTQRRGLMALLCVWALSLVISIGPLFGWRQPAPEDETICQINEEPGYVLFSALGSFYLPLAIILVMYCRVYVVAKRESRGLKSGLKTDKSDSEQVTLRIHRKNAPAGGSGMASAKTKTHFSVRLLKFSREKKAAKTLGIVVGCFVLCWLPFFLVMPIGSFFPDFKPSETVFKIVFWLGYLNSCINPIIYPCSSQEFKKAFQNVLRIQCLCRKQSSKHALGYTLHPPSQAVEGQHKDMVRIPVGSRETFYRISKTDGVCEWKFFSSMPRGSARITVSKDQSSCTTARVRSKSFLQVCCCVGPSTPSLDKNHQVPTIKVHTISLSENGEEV
Experimental: as §1

mice = assay: Forelimb catalepsy in mice; conditions: NIH, mouse, in vivo, po, 1 h
Experimental: Then each mouse was positioned such that both front paws rested on a […] diameter steel rod (covered with non-slippery tape) placed 3.5 cm above the surface of the bench. The period of time that each mouse maintained this position was recorded. The experiment was repeated at least 10 times. Finally, the longest period of catalepsy for each mouse was recorded.

human 5-HT6 receptor = target: T3, human 5-HT6 receptor (Homo sapiens, UniProt P50406); assay: Radioligand binding assay, 5-HT6 receptor; conditions: radioligand displacement, transfected HEK-293 cells; read-out: Receptor binding affinity (Ki), 5-HT6
T3 construct: expressed in transfected cells; host or cells: HEK-293
T3 sequence (P50406 whole entry): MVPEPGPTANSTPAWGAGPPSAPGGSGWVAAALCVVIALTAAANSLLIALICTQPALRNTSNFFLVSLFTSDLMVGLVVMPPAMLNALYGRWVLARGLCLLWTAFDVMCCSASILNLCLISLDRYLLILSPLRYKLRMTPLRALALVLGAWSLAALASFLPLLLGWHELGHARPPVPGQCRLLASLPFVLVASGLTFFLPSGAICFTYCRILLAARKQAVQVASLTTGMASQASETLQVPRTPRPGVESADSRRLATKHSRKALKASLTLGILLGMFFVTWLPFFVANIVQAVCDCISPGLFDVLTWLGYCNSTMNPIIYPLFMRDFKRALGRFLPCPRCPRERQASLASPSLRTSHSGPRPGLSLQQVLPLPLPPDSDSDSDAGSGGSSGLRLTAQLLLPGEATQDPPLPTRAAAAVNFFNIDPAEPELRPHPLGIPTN
Experimental: as §1

human H1 receptor = target: T4, human H1 receptor (Homo sapiens, UniProt P35367); assay: Radioligand binding assay, H1 receptor; conditions: radioligand displacement, transfected HEK-293 cells; read-out: Receptor binding affinity (Ki), H1
T4 construct: expressed in transfected cells; host or cells: HEK-293
T4 sequence (P35367 whole entry): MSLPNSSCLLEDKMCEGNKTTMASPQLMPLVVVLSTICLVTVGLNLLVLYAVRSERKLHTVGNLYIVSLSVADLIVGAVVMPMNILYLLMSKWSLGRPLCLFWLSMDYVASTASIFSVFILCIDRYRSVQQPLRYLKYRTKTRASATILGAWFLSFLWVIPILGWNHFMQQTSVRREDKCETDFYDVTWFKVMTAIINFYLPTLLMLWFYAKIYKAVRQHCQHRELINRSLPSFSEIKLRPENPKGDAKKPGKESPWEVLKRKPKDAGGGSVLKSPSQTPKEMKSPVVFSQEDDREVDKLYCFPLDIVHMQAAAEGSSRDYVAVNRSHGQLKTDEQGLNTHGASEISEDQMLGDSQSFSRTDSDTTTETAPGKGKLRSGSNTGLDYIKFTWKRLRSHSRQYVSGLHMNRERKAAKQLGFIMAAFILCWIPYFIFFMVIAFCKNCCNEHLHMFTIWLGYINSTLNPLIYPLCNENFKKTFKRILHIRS
Experimental: as §1

human 5-HT2C receptor = target: T5, human 5-HT2C receptor (Homo sapiens, UniProt P28335); assay: Radioligand binding assay, 5-HT2C receptor; conditions: radioligand displacement, transfected HEK-293 cells; read-out: Receptor binding affinity (Ki), 5-HT2C
T5 construct: expressed in transfected cells; host or cells: HEK-293
T5 sequence (P28335 33-458): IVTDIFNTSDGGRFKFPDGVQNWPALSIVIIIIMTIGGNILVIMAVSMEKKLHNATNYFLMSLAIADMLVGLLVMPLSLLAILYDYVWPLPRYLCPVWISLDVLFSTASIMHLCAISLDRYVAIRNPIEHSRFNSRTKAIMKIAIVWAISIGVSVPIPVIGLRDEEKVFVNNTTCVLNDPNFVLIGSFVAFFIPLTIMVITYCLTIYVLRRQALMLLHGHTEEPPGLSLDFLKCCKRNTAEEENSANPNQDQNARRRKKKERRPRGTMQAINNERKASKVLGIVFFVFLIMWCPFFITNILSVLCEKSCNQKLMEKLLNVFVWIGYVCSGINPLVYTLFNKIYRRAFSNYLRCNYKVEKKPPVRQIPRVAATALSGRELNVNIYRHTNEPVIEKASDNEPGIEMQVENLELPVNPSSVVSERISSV
Experimental: as §1

human 5-HT7 receptor = target: T6, human 5-HT7 receptor (Homo sapiens, UniProt P34969); assay: Radioligand binding assay, 5-HT7 receptor; conditions: radioligand displacement, transfected HEK-293 cells; read-out: Receptor binding affinity (Ki), 5-HT7
T6 construct: expressed in transfected cells; host or cells: HEK-293
T6 sequence (P34969 whole entry): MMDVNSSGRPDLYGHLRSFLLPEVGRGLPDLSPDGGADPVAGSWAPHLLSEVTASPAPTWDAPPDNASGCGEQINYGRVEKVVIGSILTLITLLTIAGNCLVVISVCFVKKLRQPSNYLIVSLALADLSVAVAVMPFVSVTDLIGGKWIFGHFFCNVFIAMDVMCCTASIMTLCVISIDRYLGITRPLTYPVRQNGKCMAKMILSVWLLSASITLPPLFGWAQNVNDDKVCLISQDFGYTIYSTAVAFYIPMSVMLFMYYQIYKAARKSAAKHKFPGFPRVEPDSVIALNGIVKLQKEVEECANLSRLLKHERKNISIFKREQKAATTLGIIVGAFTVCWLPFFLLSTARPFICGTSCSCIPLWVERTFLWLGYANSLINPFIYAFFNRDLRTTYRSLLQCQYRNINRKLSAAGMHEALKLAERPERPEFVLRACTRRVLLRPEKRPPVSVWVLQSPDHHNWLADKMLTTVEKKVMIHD
Experimental: as §1

human 5-HT2B receptor = target: T7, human 5-HT2B receptor (Homo sapiens, UniProt P41595); assay: Radioligand binding assay, 5-HT2B receptor; conditions: radioligand displacement, transfected HEK-293 cells; read-out: Receptor binding affinity (Ki), 5-HT2B
T7 construct: expressed in transfected cells; host or cells: HEK-293
T7 sequence (P41595 whole entry): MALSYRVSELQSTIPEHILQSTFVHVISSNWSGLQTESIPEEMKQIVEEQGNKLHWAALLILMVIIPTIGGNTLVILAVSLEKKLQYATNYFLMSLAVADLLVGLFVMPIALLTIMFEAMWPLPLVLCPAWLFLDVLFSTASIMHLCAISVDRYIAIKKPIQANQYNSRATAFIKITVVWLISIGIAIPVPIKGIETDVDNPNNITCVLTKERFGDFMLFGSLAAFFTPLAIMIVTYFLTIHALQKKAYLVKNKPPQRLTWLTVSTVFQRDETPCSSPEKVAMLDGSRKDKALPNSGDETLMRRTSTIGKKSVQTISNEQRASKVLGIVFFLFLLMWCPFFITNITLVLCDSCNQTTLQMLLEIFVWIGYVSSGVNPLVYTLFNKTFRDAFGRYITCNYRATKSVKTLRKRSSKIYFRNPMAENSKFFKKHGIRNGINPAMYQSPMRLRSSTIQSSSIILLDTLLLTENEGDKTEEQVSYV
Experimental: as §1

plasma prolactin = assay: Plasma prolactin levels in rats (ELISA); format: in vivo; conditions: 0.2 mg/kg for 28 days, mean ± S.E.M.
Experimental: […]. Plasma prolactin levels were assessed using a commercially available Prolactin ELISA (Mouse/Rat) purchased from GenWay, according to the manufacturer’s instructions. Plasma TC and triglyceride levels were assessed using a Roche automatic biochemical analyser Cobas c 311.

[6] = Body weight of rats after 28 days of dosing; format: in vivo; conditions: 0.2 mg/kg for 28 days, mean ± S.E.M.
[7] = […] oral 1 h before test, MK-801 0.3 mg/kg i.p.
[8] = […] oral 1 h before test, 5-HTP 320 mg/kg i.p., 40–70 min after injection
[9] = […] oral 1 h before test, MK-801 0.2 mg/kg i.p.

For `N[C@@H](Cc1c[nH]c2ccc(O)cc12)C(=O)O` [5-HTP, reference compound], the “number of head twitches” value ([1]; 5-HTP 320 mg/kg i.p. with vehicle (model group)) was 52.5 ± 2.57.

With `O=C1CCc2ccc(OCCCCN3CCN(c4cccc(Cl)c4Cl)CC3)cc2N1` [Aripiprazole, reference compound] the distance travelled [2, 7] was 1957 ± 455.1 mm, the “number of head twitches” value [1, 8] was 31.5 ± 3.12 and the escape latency (MK-801-treated rats [3]; [9]) was 21.71 ± 0.86 s. The escape latency (MK-801-treated rats [4]; […] oral for 28 days, MK-801 0.3 mg/kg i.p. day 15–28, mean ± S.E.M.) was 31.83 ± 5.00 s.

For `C[C@]12N[C@H](Cc3ccccc31)c1ccccc12` [MK-801, reference compound], the distance travelled ([2]; MK-801 0.3 mg/kg i.p. with vehicle (model group)) was 4933 ± 275.6 mm, the “Discrimination Index (DI)” value [5] was 0.51 ± 0.04 and the escape latency (MK-801-treated rats [3]; MK-801 0.2 mg/kg i.p. with vehicle (model group)) was 35.67 ± 4.05 s. For the same compound, the escape latency (MK-801-treated rats [4]; MK-801 0.3 mg/kg i.p. day 15–28 with vehicle (model group), mean ± S.E.M.) was 25.56 ± 4.36 s.

With `O=C1COc2ccc(OCCCCN3CCN(c4cccc(Cl)c4Cl)CC3)cc2N1` [PCC0104005] the Ki (human α1B receptor) was 3.2 nM, the distance travelled ([2]; 3.0 mg/kg oral 1 h before test, MK-801 0.3 mg/kg i.p.) was 2646 ± 235.2 mm and the distance travelled ([2]; 6.0 mg/kg oral 1 h before test, MK-801 0.3 mg/kg i.p.) was 2655 ± 286.5 mm. The distance travelled [2, 7] was 3284 ± 220.7 mm, the “distance travelled (spontaneous activity)” value ([2]; administered alone without MK-801, dose not stated) was 1885 ± 269.7 mm and the Ki (human 5-HT2A receptor) was 5.1 nM. For the same compound, the Ki (human α1A receptor) was 8.3 nM, the “number of head twitches” value ([1]; 3.0 mg/kg oral 1 h before test, 5-HTP 320 mg/kg i.p., 40–70 min after injection) was 24.86 ± 4.35 and the “number of head twitches” value ([1]; 6.0 mg/kg oral 1 h before test, 5-HTP 320 mg/kg i.p., 40–70 min after injection) was 10.71 ± 4.81. For the same compound, the “number of head twitches” value [1, 8] was 20.17 ± 2.70, the “forelimb catalepsy duration (longest)” value (mice; 2 mg/kg) was 22.56 ± 2.65 s and the “forelimb catalepsy duration (longest)” value (mice; 4 mg/kg) was 25.89 ± 3.59 s. The “forelimb catalepsy duration (longest)” value (mice; 8 mg/kg) was 21.23 ± 2.53 s, the Ki (human 5-HT6 receptor) was 85 nM and the Ki (human H1 receptor) was 1.1 nM. The escape latency (MK-801-treated rats [3]; 3.0 mg/kg oral 1 h before test, MK-801 0.2 mg/kg i.p.) was 18.35 ± 2.76 s, the escape latency (MK-801-treated rats [3]; 6.0 mg/kg oral 1 h before test, MK-801 0.2 mg/kg i.p.) was 17.45 ± 1.78 s and the escape latency (MK-801-treated rats [3]; [9]) was 20.60 ± 1.30 s. It also gave a Ki (human 5-HT2C receptor) of 36 nM, a Ki (human 5-HT7 receptor) of 5 nM and a Ki (human 5-HT2B receptor) of 0.34 nM. For the same compound, the escape latency (MK-801-treated rats [4]; 3.0 mg/kg oral for 28 days, MK-801 0.3 mg/kg i.p. day 15–28, mean ± S.E.M.) was 11.45 ± 2.70 s and the escape latency (MK-801-treated rats [4]; 6.0 mg/kg oral for 28 days, MK-801 0.3 mg/kg i.p. day 15–28, mean ± S.E.M.) was 14.88 ± 2.95 s.

In the case of `Cc1nc2n(c(=O)c1CCN1CCC(c3noc4cc(F)ccc34)CC1)CCCC2` [Risperidone, reference compound], the distance travelled ([2]; 0.2 mg/kg oral 1 h before test, MK-801 0.3 mg/kg i.p.) is reported as 1886 ± 437.3 mm, the plasma prolactin level (plasma prolactin) is reported as 5.67 ± 0.51 ng/mL and the “number of head twitches” value ([1]; 0.2 mg/kg oral 1 h before test, 5-HTP 320 mg/kg i.p., 40–70 min after injection) is reported as 9 ± 1.73. It also gave a body weights [6] of 116.4 ± 10.51 g, an escape latency (MK-801-treated rats [3]; 0.2 mg/kg oral 1 h before test, MK-801 0.2 mg/kg i.p.) of 20.71 ± 2.18 s and an escape latency (MK-801-treated rats [4]; 0.2 mg/kg oral for 28 days, MK-801 0.3 mg/kg i.p. day 15–28, mean ± S.E.M.) of 11.81 ± 3.06 s.
